Active and inactive are the calls of the source. How the calls were made is not given here.
Columns and labels:
[1] = system: BSC cells, SV40 CPE inhibition and viability; assay: antiviral efficacy and BSC cell toxicity – BSC cells, set 2, SV40 T antigen inhibitor project (AID 2775); details: for EC50: measured here: SV40 T antigen ATPase
[2] = as above; details: BSC cells, SV40 CPE inhibition and viability; for viability: BSC cell viability, at 100 µM, stronger effect = lower value

Compound	CC50 [1]	EC50 [1]	viability [2]	outcome [2]
O=C(Cn1sc2ccccc2c1=O)Nc1ccc(F)cc1	59 µM (inactive)	55.5 µM	30.5%	
O=C(Cn1sc2ccccc2c1=O)Nc1ccc(Cl)cc1			83%	inactive
COc1ccc(NC(=O)Cn2sc3ccccc3c2=O)cc1	73 µM (inactive)	35 µM	24.9%	
O=C(Cn1sc2ccccc2c1=O)Nc1cccc(C(F)(F)F)c1			87.5%	inactive
O=C(c1cccn1-c1ccccc1)c1cccn1-c1ccccc1			110%	inactive
COc1cccc(NC(=O)Cn2sc3ccccc3c2=O)c1	57 µM (inactive)	69.2 µM	52.5%	
Cc1ccc(NC(=O)Cn2sc3ccccc3c2=O)cc1	57 µM (inactive)	52.8 µM	22%	
O=C(Cn1sc2ccccc2c1=O)Nc1ccccc1	61 µM (inactive)	35 µM	24%	
COc1cccc(-n2nnnc2C(Cl)(Cl)c2nnnn2-c2cccc(OC)c2)c1			99.5%	inactive
O=C(Cn1sc2ccccc2c1=O)NCc1ccccc1	58 µM (inactive)	31.8 µM	22.9%	
